Calls of active or inactive are those of the source. The rule behind the calls is not given here.

The source of these data is ChEMBL document CHEMBL5331051, “Cationic, amphipathic small molecules based on a triazine-piperazine-triazine scaffold as a new class of antimicrobial agents” (Eur J Med Chem, 2022).

Experiment [1] deals with Pseudomonas aeruginosa. Description: Antibacterial activity against multidrug-resistant Pseudomonas aeruginosa CCARM 2095 strain assessed as bacterial growth inhibition in presence of chloramphenicol by checkerboard assay. The format is functional.
Experiment [2] deals with Pseudomonas aeruginosa. Description: Antibacterial activity against multidrug-resistant Pseudomonas aeruginosa CCARM 2095 strain assessed as fractional inhibitory concentration index in presence of chloramphenicol by checkerboard assay. The format is functional.
Experiment [3] concerns Pseudomonas aeruginosa. Description: Antibacterial activity against multidrug-resistant Pseudomonas aeruginosa CCARM 2095 strain assessed as fractional inhibitory concentration in presence of chloramphenicol by checkerboard assay. It is filed as functional.
In experiment [4] the test system is Pseudomonas aeruginosa. Description: Synergistic bactericidal activity against multidrug-resistant Pseudomonas aeruginosa CCARM 2095 at 0.5 times MIC measured after 60 mins in presence of 0.5 times MIC of oxacillin by time-kill kinetics assay. The format is functional, organism-based.
Experiment [5] relates to Pseudomonas aeruginosa. Description: Bactericidal activity against multidrug-resistant Pseudomonas aeruginosa CCARM 2095 measured after 24 hrs by time-kill kinetics assay. It is filed as functional, organism-based.
A further experiment concerns Escherichia coli. Description: Antibacterial activity against Escherichia coli assessed as bacterial growth inhibition measured at 18 to 24 hrs in presence of CDFA based microdilution assay. It is filed as functional. To be noted: time 18-24 hrs. On the technique in general: In broth dilution the organism is exposed to a series of concentrations in liquid medium.
Experiment [6] concerns Staphylococcus aureus. Description: Antibacterial activity against methicillin-resistant Staphylococcus aureus CCARM 3089 strain assessed as bacterial growth inhibition in presence of ciprofloxacin by checkerboard assay. The format is functional.
Experiment [7] deals with Pseudomonas aeruginosa. Description: Additive antibacterial activity against multidrug-resistant Pseudomonas aeruginosa CCARM 2095 strain assessed as fractional inhibitory concentration index in presence of ciprofloxacin by checkerboard assay. It is filed as functional.
Experiment [8] deals with Staphylococcus aureus. Description: Additive antibacterial activity against methicillin-resistant Staphylococcus aureus CCARM 3089 strain assessed as bacterial growth inhibition in presence of oxacillin by checkerboard assay. The format is functional.
The subject of experiment [9] is Pseudomonas aeruginosa. Description: Additive antibacterial activity against multidrug-resistant Pseudomonas aeruginosa CCARM 2095 strain assessed as bacterial growth inhibition in presence of ciprofloxacin by checkerboard assay. The format is functional.

As to `NCCNc1nc(NCCN)nc(N2CC(Cc3ccccc3)N(c3nc(NCCN)nc(NCCN)n3)CC2Cc2ccccc2)n1` (stereo not given), the MIC (as a rule, the lowest concentration found to suppress growth) in the experiment with Pseudomonas aeruginosa [1] came to 16 µg/mL. Further, in the experiment with Pseudomonas aeruginosa [2], the “fractional inhibitory concentration index (FICI)” value was 1.25. Moreover, the FIC in the experiment on Pseudomonas aeruginosa [3] was 1 µg/mL.

On to `NCCN(CCN)c1nc(NCc2ccccc2)nc(N2CC(Cc3ccccc3)N(c3nc(NCc4ccccc4)nc(N(CCN)CCN)n3)CC2Cc2ccccc2)n1` (stereo not given), for which the outcome with Pseudomonas aeruginosa [4] was Active. Further, the result in the experiment with Pseudomonas aeruginosa [5] was inactive. In addition, the MIC with Escherichia coli was determined as 8 µg/mL.

For `N=C(N)NCCNc1nc(NCCNC(=N)N)nc(N2CC(Cc3ccccc3)N(c3nc(NCCNC(=N)N)nc(NCCNC(=N)N)n3)CC2Cc2ccccc2)n1` (stereo not given), the MIC is 8 µg/mL in the experiment with Staphylococcus aureus [6], 4 µg/mL in the experiment on Staphylococcus aureus [8] and 16 µg/mL in the experiment on Pseudomonas aeruginosa [9]. The “fractional inhibitory concentration index (FICI)” value in the experiment on Pseudomonas aeruginosa [7] is recorded as 1.
